Source: the NIST ThermoML archive (doi:10.1021/acs.jced.8b00537)

Assay: xn = mol fraction of the nth substance listed
Conditions: 100 kPa, Liquid; for viscosity: Capillary tube (Ostwald / Ubbelohde) method; for speed of sound: Frequency=3 MHz, Single path-length method; for mass density: Vibrating tube method

CC[S+](CC)CC.O=S(=O)([N-]S(=O)(=O)C(F)(F)F)C(F)(F)F [triethylsulfonium bis((trifluoromethyl)sulfonyl)imide] + CCCO
Conditions	mass density [kg/m3]	speed of sound [m/s]	viscosity [mPa·s]
293.15 K, x1 = 0.04926	910	1205.5	2.874
293.15 K, x1 = 0.1003	996	1194.3	4.059
293.15 K, x1 = 0.1993	1120	1195	5.998
293.15 K, x1 = 0.3008	1209	1203.1	7.862
293.15 K, x1 = 0.3991	1273	1212.3	10.68
293.15 K, x1 = 0.5023	1324	1222.2	12.28
293.15 K, x1 = 0.5987	1363	1228.5	15.93
293.15 K, x1 = 0.6987	1395	1235.2	19.92
293.15 K, x1 = 0.7947	1421	1240.6	24.95
293.15 K, x1 = 0.903	1446	1245.8	31.64
293.15 K, x1 = 1	1465	1252.9	39.64
298.15 K, x1 = 0.04926	906	1190.3	2.515
298.15 K, x1 = 0.1003	992	1179.9	3.438
298.15 K, x1 = 0.1993	1115	1181.8	5.082
298.15 K, x1 = 0.3008	1204	1190.5	6.704
298.15 K, x1 = 0.3991	1268	1200.2	9.087
298.15 K, x1 = 0.5023	1319	1210.3	10.45
298.15 K, x1 = 0.5987	1358	1217	13.49
298.15 K, x1 = 0.6987	1390	1223.8	16.79
298.15 K, x1 = 0.7947	1416	1229.4	20.88
298.15 K, x1 = 0.903	1441	1234.8	26.25
298.15 K, x1 = 1	1460	1242.5	32.43
303.15 K, x1 = 0.04926	901	1174.8	2.216
303.15 K, x1 = 0.1003	987	1165.6	2.978
303.15 K, x1 = 0.1993	1111	1168.7	4.379
303.15 K, x1 = 0.3008	1199	1178.1	5.78
303.15 K, x1 = 0.3991	1263	1188.2	7.814
303.15 K, x1 = 0.5023	1314	1198.7	8.985
303.15 K, x1 = 0.5987	1353	1205.5	11.56
303.15 K, x1 = 0.6987	1386	1212.6	14.33
303.15 K, x1 = 0.7947	1411	1218.3	17.71
303.15 K, x1 = 0.903	1436	1223.9	22.1
303.15 K, x1 = 1	1455	1232.4	26.92
308.15 K, x1 = 0.04926	897	1159.5	1.962
308.15 K, x1 = 0.1003	983	1151.3	2.609
308.15 K, x1 = 0.1993	1106	1155.7	3.816
308.15 K, x1 = 0.3008	1194	1165.8	5.034
308.15 K, x1 = 0.3991	1258	1176.3	6.787
308.15 K, x1 = 0.5023	1310	1187.1	7.806
308.15 K, x1 = 0.5987	1348	1194.2	10.01
308.15 K, x1 = 0.6987	1381	1201.5	12.35
308.15 K, x1 = 0.7947	1407	1207.4	15.19
308.15 K, x1 = 0.903	1431	1213.1	18.81
308.15 K, x1 = 1	1450	1222.4	22.64
313.15 K, x1 = 0.04926	893	1144.2	1.747
313.15 K, x1 = 0.1003	978	1137.2	2.304
313.15 K, x1 = 0.1993	1101	1142.8	3.354
313.15 K, x1 = 0.3008	1190	1153.5	4.421
313.15 K, x1 = 0.3991	1253	1164.5	5.945
313.15 K, x1 = 0.5023	1305	1175.6	6.842
313.15 K, x1 = 0.5987	1343	1183	8.742
313.15 K, x1 = 0.6987	1376	1190.5	10.75
313.15 K, x1 = 0.7947	1402	1196.6	13.15
313.15 K, x1 = 0.903	1426	1202.5	16.18
313.15 K, x1 = 1	1446	1212.7	19.24
318.15 K, x1 = 0.04926	888	1129	1.563
318.15 K, x1 = 0.1003	974	1123.1	2.049
318.15 K, x1 = 0.1993	1097	1129.9	2.972
318.15 K, x1 = 0.3008	1185	1141.3	3.913
318.15 K, x1 = 0.3991	1249	1152.7	5.25
318.15 K, x1 = 0.5023	1300	1164.2	6.044
318.15 K, x1 = 0.5987	1338	1171.9	7.698
318.15 K, x1 = 0.6987	1371	1179.6	9.441
318.15 K, x1 = 0.7947	1397	1185.8	11.49
318.15 K, x1 = 0.903	1422	1191.9	14.06
318.15 K, x1 = 1	1441	1203.1	16.53
323.15 K, x1 = 0.04926	884	1113.8	1.404
323.15 K, x1 = 0.1003	969	1109.1	1.833
323.15 K, x1 = 0.1993	1092	1117.1	2.651
323.15 K, x1 = 0.3008	1180	1129.2	–
323.15 K, x1 = 0.3991	1244	1141.1	4.67
323.15 K, x1 = 0.5023	1295	1152.9	5.379
323.15 K, x1 = 0.5987	1334	1160.8	6.831
323.15 K, x1 = 0.6987	1366	1168.8	8.347
323.15 K, x1 = 0.7947	1392	1175.2	10.12
323.15 K, x1 = 0.903	1417	1181.5	12.31
323.15 K, x1 = 1	1436	1193.7	14.31
328.15 K, x1 = 0.04926	879	1098.6	1.268
328.15 K, x1 = 0.1003	965	1095.1	1.648
328.15 K, x1 = 0.1993	1087	1104.3	2.38
328.15 K, x1 = 0.3008	1175	1117.2	3.13
328.15 K, x1 = 0.3991	1239	1129.5	4.187
328.15 K, x1 = 0.5023	1290	1141.6	4.822
328.15 K, x1 = 0.5987	1329	1149.9	6.099
328.15 K, x1 = 0.6987	1362	1158.1	7.438
328.15 K, x1 = 0.7947	1388	1164.7	8.976
328.15 K, x1 = 0.903	1412	1171.2	10.86
328.15 K, x1 = 1	1431	1184.7	12.5
333.15 K, x1 = 0.04926	875	1083.4	1.149
333.15 K, x1 = 0.1003	960	1081.1	1.489
333.15 K, x1 = 0.1993	1082	1091.5	2.148
333.15 K, x1 = 0.3008	1170	1105.2	2.825
333.15 K, x1 = 0.3991	1234	1118	3.775
333.15 K, x1 = 0.5023	1285	1130.5	4.346
333.15 K, x1 = 0.5987	1324	1139.1	5.483
333.15 K, x1 = 0.6987	1357	1147.5	6.667
333.15 K, x1 = 0.7947	1383	1154.3	8.024
333.15 K, x1 = 0.903	1407	1161	9.653
333.15 K, x1 = 1	1427	1175.9	10.99
338.15 K, x1 = 0.04926	870	1068.2	1.044
338.15 K, x1 = 0.1003	955	1067.1	1.352
338.15 K, x1 = 0.1993	1078	1078.7	1.95
338.15 K, x1 = 0.3008	1166	1093.3	2.563
338.15 K, x1 = 0.3991	1229	1106.6	3.422
338.15 K, x1 = 0.5023	1281	1119.3	3.941
338.15 K, x1 = 0.5987	1319	1128.3	4.956
338.15 K, x1 = 0.6987	1352	1137	6.007
338.15 K, x1 = 0.7947	1378	1144	7.206
338.15 K, x1 = 0.903	1403	1150.8	8.628
338.15 K, x1 = 1	1422	1166.8	9.726
343.15 K, x1 = 0.04926	866	1052.9	0.953
343.15 K, x1 = 0.1003	951	1053.3	1.232
343.15 K, x1 = 0.1993	1073	1066.2	1.778
343.15 K, x1 = 0.3008	1161	1081.5	2.339
343.15 K, x1 = 0.3991	1224	1095.4	3.123
343.15 K, x1 = 0.5023	1276	1108.3	3.594
343.15 K, x1 = 0.5987	1315	1117.8	4.507
343.15 K, x1 = 0.6987	1347	1126.8	5.444
343.15 K, x1 = 0.7947	1373	1134	6.506
343.15 K, x1 = 0.903	1398	1141	7.766
343.15 K, x1 = 1	1417	1157.6	8.659
